≈ marks a conversion by molar mass, not a printed value. Calls of active or inactive are those of the source. The rule behind the calls is not given here.
Assays:
Rattus norvegicus [1] = assay: Ratio of rat urine volume collected from treatment group (10 mg/kg perorally) after 4 hours versus control group was determined; type: functional
Vasopressin V2 receptor = Vasopressin V2 receptor (Homo sapiens, UniProt P30518); assay: Displacement of [3H]AVP from human vasopressin V2-receptor expressed in murine fibroblast cell (LV2) membranes; type: cell-based
[2] = Compound was tested for solubility in a model parenteral system consisting of 30% poltethylene glycol 200 (PEG-200)/water; type: ADME; conditions: read-out: S
Rattus norvegicus [3] = assay: Ratio of rat urine volume collected from treatment group (1 mg/kg perorally) after 4 hours versus control group was determined; type: functional
Rattus norvegicus [4] = assay: Ratio of rat urine volume collected from treatment group (3 mg/kg perorally) after 4 hours versus control group was determined; type: functional
[5] = Compound was tested for solubility in a model parenteral system consisting of 30% poltethylene glycol 200 (PEG-200)/water (*, mixture of amophorus and crystalline material); type: ADME; conditions: read-out: S
Rattus norvegicus [6] = assay: Ratio of urine volume collected from treatment group (10 mg/kg perorally) after 4 hours versus control group was determined; No effect; type: functional, organism-based

Vasopressin V2 receptor, sequence (P30518 whole entry): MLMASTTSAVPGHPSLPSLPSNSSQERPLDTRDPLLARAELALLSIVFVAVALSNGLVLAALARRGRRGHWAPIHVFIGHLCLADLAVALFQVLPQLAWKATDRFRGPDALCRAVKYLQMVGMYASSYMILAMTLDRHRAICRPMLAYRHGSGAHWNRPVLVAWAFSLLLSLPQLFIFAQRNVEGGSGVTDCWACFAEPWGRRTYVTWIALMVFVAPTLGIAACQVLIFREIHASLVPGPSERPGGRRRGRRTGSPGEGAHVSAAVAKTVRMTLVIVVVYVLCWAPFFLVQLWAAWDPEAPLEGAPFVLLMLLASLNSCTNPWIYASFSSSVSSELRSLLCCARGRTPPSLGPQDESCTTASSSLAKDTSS

IC50 (Vasopressin V2 receptor) | Structure (SMILES) | Ratio (Rattus norvegicus [1]) | also measured
– | Cc1ccc(F)cc1C(=O)Nc1ccc(C(=O)N2Cc3cccn3Cc3ccccc32)c(Cl)c1 [LIXIVAPTAN] | 7.4 | –
1.3 nM | CN1CCN(Cc2ccc3n2Cc2ccccc2N(C(=O)c2ccc(NC(=O)c4ccccc4-c4ccccc4)cc2Cl)C3)CC1 | 3.75 | –
7 nM | COc1cc(NC(=O)c2ccccc2-c2ccccc2)ccc1C(=O)N1Cc2ccc(CN3CCN(C)CC3)n2Cc2ccccc21 | 7.8 | solubility [2]: 300 µg/mL (≈ 479 µM)
– | CN1CCN(C2CCN(C(=O)c3ccc4n3Cc3ccccc3N(C(=O)c3ccc(NC(=O)c5ccccc5-c5ccccc5)cc3Cl)C4)CC2)CC1.Cl | 2.7 | –
2.6 nM | CN(C)CCN(C)Cc1ccc2n1Cc1ccccc1N(C(=O)c1ccc(NC(=O)c3ccccc3-c3ccccc3)cc1Cl)C2 | 4.2 | –
5.2 nM | COc1cc(C(=O)N2Cc3ccc(CN(C)C)n3Cc3ccccc32)ccc1NC(=O)c1ccccc1-c1ccccc1 | 5 | solubility [2]: 2200 µg/mL (≈ 3850 µM)
– | Cc1ccc(F)cc1C(=O)Nc1ccc(C(=O)N2Cc3ccc(CN(C)C)n3Cc3ccccc32)c(Cl)c1 | – | Ratio (Rattus norvegicus [3]): 1.4; Ratio (Rattus norvegicus [4]): 1.4
– | CN1CCN(C(=O)c2ccc3n2Cc2ccccc2N(C(=O)c2ccc(NC(=O)c4ccccc4-c4ccccc4)cc2Cl)C3)CC1.O=C(O)CC(O)(CC(=O)O)C(=O)O | – | solubility [2]: 1700 µg/mL
7.5 nM | CN(C)Cc1ccc2n1Cc1ccccc1N(C(=O)c1ccc(NC(=O)c3ccccc3-c3ccccc3)cc1Cl)C2 | 6.6 | Ratio (Rattus norvegicus [3]): 2.3; Ratio (Rattus norvegicus [4]): 5.6; solubility [5]: 720 µg/mL (≈ 1250 µM)
– | Cc1ccc(F)cc1C(=O)Nc1ccc(C(=O)N2Cc3ccc(C(=O)O)n3Cc3ccccc32)c(Cl)c1 | – | Ratio (Rattus norvegicus [6]): inactive
14.8 nM | CN(C)Cc1ccc2n1Cc1ccccc1N(C(=O)c1ccc(NC(=O)c3ccccc3-c3ccccc3)cc1O)C2 | 3.8 | solubility [5]: 1900 µg/mL (≈ 3410 µM)
2.1 nM | O=C(Nc1ccc(C(=O)N2Cc3ccc(CN4CCC(N5CCCCC5)CC4)n3Cc3ccccc32)c(Cl)c1)c1ccccc1-c1ccccc1 | 1.5 | –
8.8 nM | CN(C)C1CCN(C(=O)c2ccc3n2Cc2ccccc2N(C(=O)c2ccc(NC(=O)c4ccccc4-c4ccccc4)cc2Cl)C3)CC1 | – | –
2 nM | CN(C)C1CCN(Cc2ccc3n2Cc2ccccc2N(C(=O)c2ccc(NC(=O)c4ccccc4-c4ccccc4)cc2Cl)C3)CC1 | 2.3 | –

From ChEMBL document CHEMBL1133037, “The design, synthesis and physical chemical properties of novel human vasopressin V2-receptor antagonists optimized for parenteral delivery” (Bioorg Med Chem Lett, 2000)
